Reference: patent publication US11672775B2, “Treprostinil prodrugs” (United Therapeutics Corporation, priority 2016, dated 2023)

Columns and labels:
DP1 receptor = target: T1, DP1 receptor (Homo sapiens, UniProt Q13258); assay: cAMP assay (TR-FRET or HTRF kit, forskolin), Examples 5 and 6; assay type: cell-based; settings: Table 3 (Example 5); read-out: EC50, DP receptor
T1 construct: expressed in transfected cells
T1 sequence (Q13258 1-359): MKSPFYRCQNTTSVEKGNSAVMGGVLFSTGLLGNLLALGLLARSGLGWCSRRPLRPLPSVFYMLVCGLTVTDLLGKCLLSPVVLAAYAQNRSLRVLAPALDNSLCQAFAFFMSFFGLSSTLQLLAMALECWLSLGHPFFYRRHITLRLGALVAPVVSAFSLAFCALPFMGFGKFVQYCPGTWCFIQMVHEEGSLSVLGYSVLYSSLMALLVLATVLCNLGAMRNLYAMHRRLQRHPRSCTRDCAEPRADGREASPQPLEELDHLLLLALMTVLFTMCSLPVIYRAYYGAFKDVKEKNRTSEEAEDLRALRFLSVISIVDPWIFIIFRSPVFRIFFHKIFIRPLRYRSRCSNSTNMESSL
Description: (§1) [table] Prodrug XV (for structure see FIG. 10) as well as treprostinil were tested for 3 G-protein-coupled receptors (GPCRs), namely DP1, EP2, and IP, using cyclic adenosine monophosphate (cAMP) assay. Cyclic AMP assay kits: Multiscreen™ TR-FRET cAMP 1.0 No Wash Assay Kit (Multispan, Inc., Cat #MSCM01-25) and HTRF cAMP HiRange Kit (CisBio, Cat #62AM6PEC). Instruments: FlexStation III (Molecular Devices). Cyclic AMP (cAMP) Assay: cAMP assays were performed according to the manufacturer's protocol using Multiscreen™ TR-FRET cAMP 1.0 No Wash Assay Kit or HTRF cAMP HiRange Kit. […] The reaction was terminated by sequentially adding sequentially adding trFluor™ Eu-labeled cAMP and trFluor™ 650-labeled anti-cAMP antibody or D2-labeled cAMP and cryptate-labeled anti-cAMP antibody in lysis buffer. The plate was then incubated at room temperature for 60 minutes before reading fluorescent emissions at 620 nm and 665 or 668 nm with excitation at 314 nm on FlexStation III (Molecular Devices). Cyclic AMP (cAMP) assays: Cyclic AMP assay results are shown as “Ratio 665/620×10,000” (ratio of fluorescence at 665 nm and 620 nm×10,000) or “Ratio 668/620×10,000” (ratio of fluorescence at 668 nm and 620 nm×10,000). Data in graphs were represented in Mean±SD. Dose-dependent responses were fitted with sigmoidal dose-response curves allowing variable slopes using GraphPad Prism versions 4, 5 or 6 (Graphpad Prism). Treprostinil Prodrug XIV (for structure see FIG. 10) as well as treprostinil were tested for 3 G-protein-coupled receptors (GPCRs), namely DP1, EP2, and IP, using cyclin adenosine monophosphate (cAMP) assay. Cyclic AMP assay kits: Multiscreen™ TR-FRET cAMP 1.0 No Wash Assay Kit (Multispan, Inc., Cat #MSCM01-25) and HTRF cAMP HiRange Kit (CisBio, Cat #62AM6PEC). Cyclic AMP (cAMP) Assay: cAMP assays were performed according to the manufacturer's protocol using Multiscreen™ TR-FRET cAMP 1.0 No Wash Assay Kit or HTRF cAMP HiRange Kit. […] The reaction was terminated by sequentially adding sequentially adding trFluor™ Eu-labeled cAMP and trFluor™ 650-labeled anti-cAMP antibody or D2-labeled cAMP and cryptate-labeled anti-cAMP antibody in lysis buffer. The plate was then incubated at room temperature for 60 minutes before reading fluorescent emissions at 620 nm and 665 or 668 nm with excitation at 314 nm on FlexStation III (Molecular Devices). Cyclic AMP (cAMP) assays: Cyclic AMP assay results are shown as “Ratio 665/620×10,000” (ratio of fluorescence at 665 nm and 620 nm×10,000) or “Ratio 668/620×10,000” (ratio of fluorescence at 668 nm and 620 nm×10,000). Data in graphs were represented in Mean±SD. Dose-dependent responses were fitted with sigmoidal dose-response curves allowing variable slopes using GraphPad Prism versions 4, 5 or 6 (Graphpad Prism).

EP2 receptor = target: T2, EP2 receptor (Homo sapiens, UniProt P43116); assay: as above; assay type: cell-based; settings: Table 3 (Example 5); read-out: EC50, EP receptor
T2 construct: expressed in transfected cells
Description: as §1

IP1 receptor = target: T3, IP1 receptor (Homo sapiens, UniProt P43119); assay: as above; assay type: cell-based; settings: Table 3 (Example 5); read-out: EC50, IP receptor
T3 construct: expressed in transfected cells
Description: as §1

Sprague Dawley rats [1] = assay: Rat intraplantar injection model, von Frey test (Example 9); assay type: in vivo, Sprague Dawley rat; settings: 1 μg/mL or 100 μg/mL; 15 and 90 minutes post-injection
Description: (§2) Male Sprague Dawley rats (n=112) were allocated into 14 groups of 8/group. The study was run in 2 cycles, on consecutive days, 7 groups per cycle. Each cycle was composed of a Saline group, PBS group, which served as the control, and also treprostinil at a dose of 100 μg/mL or 1 μg/mL.
(§3) Animals were administered 0.1 mL of test material by subcutaneous injection into the paw pad (Intraplantar injection) at time zero. Animals were subsequently evaluated for their response to mechanical (von Frey filaments) and thermal stimuli, 15 and 90 minutes post-injection. The von Frey test was conducted prior to the thermal test, which followed immediately within minutes for each animal. In addition, clinical observation scoring of the animal's reaction to injection was conducted. FIG. 16 schematically illustrates the study design.
Mechanical pain sensitivity was tested using the von Frey test, which measures the withdrawal force threshold of the animals. The lower the force applied represents a greater sensitivity to the stimulus. The von Frey test was performed 15 and 90 minutes post-Test Item injection.

Sprague Dawley rats [2] = assay: Rat intraplantar injection model, clinical observation score (Example 9); assay type: in vivo, Sprague Dawley rat
Description: as §2, §3
A Clinical observation score was assigned by assessing for redness, swelling and paw placement.

T3 sequence (P43119 whole entry): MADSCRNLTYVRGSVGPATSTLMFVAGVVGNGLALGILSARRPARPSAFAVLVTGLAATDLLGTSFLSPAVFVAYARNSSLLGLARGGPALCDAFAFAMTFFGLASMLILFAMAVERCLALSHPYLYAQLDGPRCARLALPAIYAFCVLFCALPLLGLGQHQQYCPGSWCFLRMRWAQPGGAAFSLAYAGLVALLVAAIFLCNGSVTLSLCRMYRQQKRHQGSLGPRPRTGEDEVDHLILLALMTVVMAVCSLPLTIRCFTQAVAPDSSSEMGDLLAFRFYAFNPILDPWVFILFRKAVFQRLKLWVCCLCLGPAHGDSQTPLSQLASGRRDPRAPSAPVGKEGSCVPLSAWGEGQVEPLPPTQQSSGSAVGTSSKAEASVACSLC
T2 sequence (P43116 whole entry): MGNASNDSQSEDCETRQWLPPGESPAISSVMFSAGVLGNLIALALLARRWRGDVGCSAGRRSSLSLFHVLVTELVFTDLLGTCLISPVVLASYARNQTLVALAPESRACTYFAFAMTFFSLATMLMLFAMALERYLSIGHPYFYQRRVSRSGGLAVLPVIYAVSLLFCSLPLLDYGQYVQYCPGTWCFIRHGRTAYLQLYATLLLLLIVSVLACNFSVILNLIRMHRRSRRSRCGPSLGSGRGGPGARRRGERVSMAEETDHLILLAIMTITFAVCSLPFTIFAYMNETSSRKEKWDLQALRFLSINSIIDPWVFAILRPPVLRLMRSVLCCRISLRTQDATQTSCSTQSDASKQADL

- EC50 (DP1 receptor): 0.078 nM
- EC50 (EP2 receptor): 0.537 nM
- EC50 (IP1 receptor): 0.0779 nM
- von Frey withdrawal force threshold vs PBS-treated group (Sprague Dawley rats [1]): reduced withdrawal force threshold
- clinical score (Sprague Dawley rats [2]; 1 μg/mL (cycle 2), both time points (15 and 90 min)): non-zero
- clinical score (Sprague Dawley rats [2]; 100 μg/mL (cycle 1), 15 min): non-zero
- clinical score vs PBS group (Sprague Dawley rats [2]; 100 μg/mL (cycle 1), 90 minutes post-injection): non-zero
Structure (SMILES): CCCCC[C@H](O)CC[C@@H]1[C@H]2Cc3cccc(OCC(=O)O)c3C[C@H]2C[C@H]1O [Treprostinil]
- clinical score vs PBS treated group (Sprague Dawley rats [2]; 1 μg/mL or 100 μg/mL, 15 and 90 minutes post-injection): statistically significant increase in the clinical score
